Measured values as given in PubChem BioAssay (NCI).
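GI50 is the concentration that inhibits growth by half. TGI is the concentration that stops growth completely.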

What was measured:
Experiment in all cases: NCI-60 cell line screen, 384-well format
[1] = test system: NCI-H23 lung
[2] = test system: NCI-H322M lung
[3] = test system: NCI-H460 NSCLC
[4] = test system: NCI-H522 lung
[5] = test system: NCI/ADR-RES ovarian
[6] = test system: OVCAR-3 ovarian
[7] = test system: OVCAR-4 ovarian
[8] = test system: OVCAR-5 ovarian
[9] = test system: OVCAR-8 ovarian
[10] = test system: PC-3 prostate
[11] = test system: RPMI-8226 leukemia
[12] = test system: RXF 393 renal
[13] = test system: SF-268 CNS
[14] = test system: SF-295 CNS
[15] = test system: SF-539 CNS
[16] = test system: SK-MEL-28 melanoma
[17] = test system: SK-MEL-5 melanoma
[18] = test system: SK-OV-3 ovarian
[19] = test system: SN12C renal
[20] = test system: SNB-19 CNS
[21] = test system: SNB-75 CNS
[22] = test system: SR leukemia
[23] = test system: SW-620 colon
[24] = test system: T-47D breast
[25] = test system: TK-10 renal
[26] = test system: U251 glioblastoma
[27] = test system: UACC-257 melanoma
[28] = test system: UACC-62 melanoma
[29] = test system: UO-31 renal

C[C@H](Nc1ncnc2nc[nH]c12)c1cc2cccc(Cl)c2c(=O)n1-c1ccccc1
GI50 [1]: 25.9 µM
TGI [1]: > 100 µM
GI50 [2]: 15.5 µM
TGI [2]: > 72 µM
GI50 [3]: 15.9 µM
TGI [3]: > 100 µM
GI50 [4]: 16.8 µM
TGI [4]: > 83.3 µM
GI50 [5]: > 100 µM
TGI [5]: > 100 µM
GI50 [6]: 3.65 µM
TGI [6]: > 48.4 µM
GI50 [7]: 11.4 µM
TGI [7]: 90.6 µM
GI50 [8]: 32.9 µM
TGI [8]: > 100 µM
GI50 [9]: 25.8 µM
TGI [9]: > 100 µM
GI50 [10]: 1.46 µM
TGI [10]: > 79.5 µM
GI50 [11]: 25.2 µM
TGI [11]: > 78.7 µM
GI50 [12]: 0.104 µM
TGI [12]: 1.3 µM
GI50 [13]: 24.7 µM
TGI [13]: > 84.7 µM
GI50 [14]: 4.95 µM
TGI [14]: > 40.2 µM
GI50 [15]: 19.7 µM
TGI [15]: > 100 µM
GI50 [16]: 8.44 µM
TGI [16]: 98.8 µM
GI50 [17]: 18.2 µM
TGI [17]: > 85.1 µM
GI50 [18]: 14.3 µM
TGI [18]: > 79.2 µM
GI50 [19]: 3.25 µM
TGI [19]: > 100 µM
GI50 [20]: 44.5 µM
TGI [20]: > 100 µM
GI50 [21]: 0.103 µM
TGI [21]: 2.41 µM
GI50 [22]: 14 µM
TGI [22]: 40.1 µM
GI50 [23]: > 100 µM
TGI [23]: > 100 µM
GI50 [24]: 1.6 µM
TGI [24]: 17.6 µM
GI50 [25]: 15 µM
TGI [25]: > 100 µM
GI50 [26]: 47.3 µM
TGI [26]: > 100 µM
GI50 [27]: 27 µM
TGI [27]: > 100 µM
GI50 [28]: 5.86 µM
TGI [28]: > 64.2 µM
GI50 [29]: 3.89 µM
TGI [29]: > 93.1 µM
